# According to patent US6376497B1, “Antifungal azole derivatives having a fluorinated vinyl group and process for preparing same” (Korea Research Institute of Chemical Technology, priority 1999, dated 2002):
# Like-named read-outs stand apart in the source and are kept apart here.
# Legend:
# [1] = test system: Candida albicans A. 10231; assay: In vitro antifungal activity, microbroth dilution MIC; type: cell-based; conditions: C. albicans A. 10231, RPMI-1640, 35° C., 4 to 48 hours
# Procedure, shortened: (§1)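 Broth microdilution adapted from NCCLS M27, in RPMI-1640 with 0.165 M MOPS, pH 7.0. Yeast or mould inoculum at 2×10^3 CFU/ml was mixed 1:1 with DMSO-derived compound solutions (200 to 0.10 μg/ml before mixing) and incubated at 35 °C for 4 to 48 h. MIC was the concentration showing no growth.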
# Candida albicans C1-2 = assay: as above; type: cell-based; conditions: C. albicans C1-2, RPMI-1640, 35° C., 4 to 48 hours
# Procedure, shortened: as §1
# [2] = test system: Torulopsis glabrata B. 16205; assay: as above; type: cell-based; conditions: T. glabrata B. 16205, RPMI-1640, 35° C., 4 to 48 hours
# Procedure, shortened: as §1
# [3] = test system: Aspergillus niger A. 16404; assay: as above; type: cell-based; conditions: A. niger A. 16404, RPMI-1640, 35° C., 4 to 48 hours
# Procedure, shortened: as §1
# [4] = test system: Cryptococcus neoformans IFM. 40092; assay: as above; type: cell-based; conditions: Cry. neoformans IFM. 40092, RPMI-1640, 35° C., 4 to 48 hours
# Procedure, shortened: as §1
# [5] = test system: Candida albicans IFO. 1385; assay: as above; type: cell-based; conditions: C. albicans IFO. 1385, RPMI-1640, 35° C., 4 to 48 hours
# Procedure, shortened: as §1
# [6] = test system: Candida pseudotropicalis K. 11658; assay: as above; type: cell-based; conditions: C. pseudotropicalis K. 11658, RPMI-1640, 35° C., 4 to 48 hours
# Procedure, shortened: as §1
# [7] = test system: Candida parapsitosis A. 7330; assay: as above; type: cell-based; conditions: C. parapsitosis A. 7330, RPMI-1640, 35° C., 4 to 48 hours
# Procedure, shortened: as §1
# [8] = test system: Trichophyton mentagrophytes A. 9129; assay: as above; type: cell-based; conditions: T. mentagrophytes A. 9129, RPMI-1640, 35° C., 4 to 48 hours
# Procedure, shortened: as §1
# [9] = test system: Aspergillus furnigatus B. 19119; assay: as above; type: cell-based; conditions: A furnigatus B. 19119, RPMI-1640, 35° C., 4 to 48 hours
# Procedure, shortened: as §1
# Candida krusei K. 11655 = assay: as above; type: cell-based; conditions: C. krusei K. 11655, RPMI-1640, 35° C., 4 to 48 hours
# Procedure, shortened: as §1
# [10] = test system: Trichophyton mentagrophytes B. 32663; assay: as above; type: cell-based; conditions: T. mentagrophytes B. 32663, RPMI-1640, 35° C., 4 to 48 hours
# Procedure, shortened: as §1
# [11] = test system: Cryptococcus neoformans B. 42419; assay: as above; type: cell-based; conditions: Cry. neoformans B. 42419, RPMI-1640, 35° C., 4 to 48 hours
# Procedure, shortened: as §1
# [12] = test system: Candida tropicalis A. 13803; assay: as above; type: cell-based; conditions: C. tropicalis A. 13803, RPMI-1640, 35° C., 4 to 48 hours
# Procedure, shortened: as §1
# [13] = test system: Cryptococcus neoformans A. 34144; assay: as above; type: cell-based; conditions: Cry. neoformans A. 34144, RPMI-1640, 35° C., 4 to 48 hours
# Procedure, shortened: as §1
# ICR mice = conditions: for LD50: single oral administration in corn oil containing 30% DMSO, observed for 7 days
# Procedure: 30 four-week-old, specific pathogen-free ICR mice, 15 female mice each weighing about 15.8 to 22.3 g and 15 male mice each weighing about 18.7 to 25.6 g, were provided by the Animal Center of Korean Research Institute of Chemical and Technology.
# When the mice became five-week-old, 15 female mice each weighing about 17.0 to 22.3 g and 15 male mice each weighing about 22.0 to 27.7 g were bred for 6 days before the experiment under an environment of […], 50±10% relative humidity, 12L/12D photoperiod, 10-20 ventilation and 150-300 Lux illumination, with free access to food(Cheil Fodder Co.) which had been sterilized by using 2.0 Mrad radiation and water sterilized by U.V. sterilizer.
# The compound of Example 26 of the present invention was dissolved in corn oil containing 30% DMSO and the solution was orally administered in doses of 10, 50, 100, 500, 1,000 and 2,000 mg of the compound/kg of the body weight(10 ml of the sample volume/kg of the body weight). […] The weight changes of the mice were recorded every day to examine the effect of the test compound. Further, on the 7th day, the mice were sacrificed and the internal organs were visually examined.
# mouse [14] = conditions: intravenous; cited from earlier work
# mouse [15] = conditions: oral; cited from earlier work
Molecule,Minimal inhibitory concentration (MIC) [1] [µg/mL],Minimal inhibitory concentration (MIC) (Candida albicans C1-2) [µg/mL],Minimal inhibitory concentration (MIC) [2] [µg/mL],Minimal inhibitory concentration (MIC) [3] [µg/mL],Minimal inhibitory concentration (MIC) [4] [µg/mL],Minimal inhibitory concentration (MIC) [5] [µg/mL],Minimal inhibitory concentration (MIC) [6] [µg/mL],Minimal inhibitory concentration (MIC) [7] [µg/mL],Minimal inhibitory concentration (MIC) [8] [µg/mL],Minimal inhibitory concentration (MIC) [9] [µg/mL],Minimal inhibitory concentration (MIC) (Candida krusei K. 11655) [µg/mL],Minimal inhibitory concentration (MIC) [10] [µg/mL],Minimal inhibitory concentration (MIC) [11] [µg/mL],Minimal inhibitory concentration (MIC) [12] [µg/mL],Minimal inhibitory concentration (MIC) [13] [µg/mL],also measured
COc1ccc(C(=C(F)OCC2COC(Cn3ccnc3)(c3ccc(Cl)cc3Cl)O2)C(F)(F)F)cc1 (centres unmarked) [Ex. 27],25.0,25.0,25.0,100,0.78,1.56,>100,>100,25.0,100,>100,6.25,1.56,>100,1.56,
FC(OCC1COC(Cn2ccnc2)(c2ccc(Cl)cc2Cl)O1)=C(c1ccc2c(c1)OCO2)C(F)(F)F (centres unmarked) [Ex. 28],25.0,25.0,25.0,100,0.78,1.56,100,100,25.0,100,>100,6.25,1.56,100,1.56,
FC(OCC1COC(Cn2ccnc2)(c2ccc(Cl)cc2Cl)O1)=C(c1ccc(Oc2ccccc2)cc1)C(F)(F)F (centres unmarked) [Ex. 29],>100,>100,12.5,100,0.20,1.56,>100,>100,6.25,6.25,>100,3.13,1.56,>100,1.56,
FC(OCC1COC(Cn2ccnc2)(c2ccc(Cl)cc2Cl)O1)=C(c1cccc(Cl)c1)C(F)(F)F (centres unmarked) [Ex. 30],25.0,25.0,12.5,25.0,0.20,1.56,>100,>100,6.25,12.5,>100,1.56,0.78,>100,0.78,
FC(OCC1COC(Cn2ccnc2)(c2ccc(Cl)cc2Cl)O1)=C(c1ccc(Cl)cc1)C(F)(F)F (centres unmarked) [Ex. 31],12.5,12.5,6.25,6.25,0.78,0.78,12.5,25.0,3.13,6.25,25.0,1.56,1.56,12.5,1.56,
COc1cccc(C(=C(F)OCC2COC(Cn3ccnc3)(c3ccc(Cl)cc3Cl)O2)C(F)(F)F)c1 (centres unmarked) [Example 26],6.25,6.25,6.25,6.25,0.39,0.39,,12.5,1.56,3.13,25.0,0.78,1.56,12.5,1.56,"LD50 (ICR mice; female): approximately 2,000 mg/kg; LD50 (ICR mice; male): higher than 2,000 mg/kg; survival at day 7 (ICR mice; single oral dose of 1,000 mg/kg or below): All the mice were alive at day 7; weight loss (ICR mice; single oral doses 10 to 2,000 mg/kg, 7 day test period): no weight loss was observed"
C[C@@H]1[C@H](O)[C@@H](C)/C=C/C=C/C=C/C=C/C=C/C=C/C=C/[C@H](O[C@@H]2O[C@H](C)[C@@H](O)[C@H](N)[C@@H]2O)C[C@@H]2O[C@](O)(C[C@@H](O)C[C@@H](O)[C@H](O)CC[C@@H](O)C[C@@H](O)CC(=O)O[C@H]1C)C[C@H](O)[C@H]2C(=O)O [amphotericin B],,,,,,,,,,,,,,,,LD50 (mouse [14]): 4 mg/kg
CC(=O)N1CCN(c2ccc(OCC3COC(Cn4ccnc4)(c4ccc(Cl)cc4Cl)O3)cc2)CC1 (centres unmarked) [ketoconazole],,,,,,,,,,,,,,,,LD50 (mouse [15]): 702 mg/kg
"(E&Z) 1-{4-[cis-2-(2,4-dichlorophenyl)-2-(1H-1-imidazolylmethyl)-1,3-dioxolan-4-ylmethoxy]-phenoxy}-1,3,3,3-tetrafluoro-2-phenyl-1-propene [Example 19]",6.25,6.25,3.13,3.13,0.20,0.78,25.0,>100,1.56,1.56,50.0,0.78,0.78,25.0,1.56,
